Data on 1 compound can be found in patent US12006527B2, “Coryneform bacterium transformant and method for producing 2-phenylethanol using same” (Research Institute of Innovative Technology for the Earth, priority 2018, dated 2024).

Assay in all cases: Growth inhibition by 2-phenylethanol in aerobic culture (OD610)
What all share (format): cell-based

One assay relates to Kluyveromyces marxianus. The settings on record: aerobic shaking culture 40° C., YPD-liquid medium. As for the experimental part: Tests regarding growth inhibition by 2-phenylethanol in aerobic culture were carried out on Corynebacterium glutamicum, Escherichia coli, Pseudomonas putida, and Kluyveromyces marxianus. Further, Kluyveromyces marxianus was applied to a YPD-agar plate [containing 2% polypeptone, 1% yeast extract, 2% glucose, and 1.5% agar], and was left to stand at 30° C. for 15 hours in a dark place. One platinum loop of Kluyveromyces marxianus grown on the plate described above was inoculated in a test tube having therein 10 ml of a YPD-liquid medium [containing 2% polypeptone, 1% yeast extract, and 2% glucose], and was subjected to aerobic shaking culture at 40° C. for 13 hours. Kluyveromyces marxianus grown under the above-described conditions was inoculated in 100 ml of the YPD-liquid medium so that the initial bacterial cell concentration OD610=0.05 was achieved. Simultaneously, 2-phenylethanol was added so that the final concentrations thereof became 0, 10, 20, 30, 40, and 50 mM, and aerobic shaking culture was carried out at 40° C. The growth of bacterial cells was determined by measuring the absorbance of OD610.

For the next assay, the system named is Pseudomonas putida S12. The settings on record: aerobic shaking culture 30° C., LB(+glucose)-liquid medium. Here is the method:
Tests regarding growth inhibition by 2-phenylethanol in aerobic culture were carried out on Corynebacterium glutamicum, Escherichia coli, Pseudomonas putida, and Kluyveromyces marxianus. Pseudomonas putida S12 was applied to an LB-agar plate [containing 1% polypeptone, 0.5% yeast extract, 0.5% sodium chloride, and 1.5% agar], and was left to stand at 30° C. for 15 hours in a dark place. One platinum loop of Pseudomonas putida S12 grown on the plate described above was inoculated in a test tube having therein 10 ml of an LB(+glucose)-liquid medium [containing 1% polypeptone, 0.5% yeast extract, 0.5% sodium chloride, and 0.4% glucose], and was subjected to aerobic shaking culture at 33° C. for 13 hours. The Pseudomonas putida S12 strain grown under the above-described conditions was inoculated in 100 ml of the LB(+glucose)-liquid medium so that the initial bacterial cell concentration OD610=0.05 was achieved. Simultaneously, 2-phenylethanol was added so that the final concentrations thereof became 0, 10, 20, 30, 40, and 50 mM, and aerobic shaking culture was carried out at 30° C. The growth of bacterial cells was determined by measuring the absorbance of OD610.

The test system of the next assay is Escherichia coli MG1655. Conditions: aerobic shaking culture, LB-liquid medium. Here is the method: Tests regarding growth inhibition by 2-phenylethanol in aerobic culture were carried out on Corynebacterium glutamicum, Escherichia coli, Pseudomonas putida, and Kluyveromyces marxianus. Escherichia coli MG1655 was applied to an LB-agar plate [containing 1% polypeptone, 0.5% yeast extract, 0.5% sodium chloride, and 1.5% agar], and was left to stand at 37° C. for 15 hours in a dark place. One platinum loop of Escherichia coli MG1655 grown on the plate described above was inoculated in a test tube having therein 10 ml of an LB-liquid medium [containing 1% polypeptone, 0.5% yeast extract, and 0.5% sodium chloride], and was subjected to aerobic shaking culture at 37° C. for 13 hours. Escherichia coli MG1655 grown under the above-described conditions was inoculated in 100 ml of the LB-liquid medium so that the initial bacterial cell concentration OD610=0.05 was achieved. Simultaneously, 2-phenylethanol was added so that the final concentrations thereof became 0, 10, 20, 30, 40, and 50 mM, and aerobic shaking culture was carried out at 33° C. The growth of bacterial cells was determined by measuring the absorbance of OD610.

For assay [1], the system named is Corynebacterium glutamicum R. The settings on record: aerobic shaking culture 33° C., A-liquid medium. Here is the method: Tests regarding growth inhibition by 2-phenylethanol in aerobic culture were carried out on Corynebacterium glutamicum, Escherichia coli, Pseudomonas putida, and Kluyveromyces marxianus. Corynebacterium glutamicum R was applied to an A-agar plate (the same as that described above), and was left to stand in a dark place at 33° C. for 15 hours. One platinum loop of Corynebacterium glutamicum R grown on the plate described above was inoculated in a test tube having therein 10 ml of the A-liquid medium, and aerobic shaking culture was carried out at 33° C. for 13 hours. Corynebacterium glutamicum R grown under the above-described conditions was inoculated in 100 ml of the A-liquid medium (the same as that described above) so that the initial bacterial cell concentration OD610=0.05 was achieved. Simultaneously, 2-phenylethanol was added so that the final concentrations thereof became 0, 10, 20, 30, 40, and 50 mM, and aerobic shaking culture was carried out at 33° C. The growth of bacterial cells was determined by measuring the absorbance of OD610.

“Also recorded” adds a separate entry of the source.

`OCCc1ccccc1` [2-phenylethanol]: the “growth of Kluyveromyces marxianus” value in the assay with Kluyveromyces marxianus (20 mM 2-phenylethanol) is given as “strongly inhibited”; in the assay with Kluyveromyces marxianus (30 mM 2-phenylethanol) it was “substantially completely inhibited”. Further, the “growth of Pseudomonas putida” value in the assay on Pseudomonas putida S12 (20 mM 2-phenylethanol) is listed as “strongly inhibited”; in the assay with Pseudomonas putida S12 (30 mM 2-phenylethanol) it was “substantially completely inhibited”. In addition, the entries for the “growth of Escherichia coli” value with Escherichia coli MG1655 (20 mM 2-phenylethanol) and in the assay with Escherichia coli MG1655 (30 mM 2-phenylethanol) were “significantly inhibited; also recorded: strongly inhibited” and “substantially completely inhibited”, respectively. Also, the “growth of Corynebacterium glutamicum” value was “not influenced at all” in assay [1] (20 mM 2-phenylethanol) and “delayed, but was improved 24 hours after” in assay [1] (30 mM 2-phenylethanol).
